Test results published in US8455528B2, “Imidazole derivatives useful as inhibitors of FAAH” (Merck Sharp & Dohme Corp., priority 2008, dated 2013).
pIC50: −log10 of the molar value. Counter-ions that a name gives are not always drawn.

Target: T1, Human FAAH (Homo sapiens, UniProt O00519)
T1 construct: The full length FAAH was subcloned into the mammalian expression vector, pcDEF.neo; expressed in transfected cells
T1 sequence (O00519 1-579): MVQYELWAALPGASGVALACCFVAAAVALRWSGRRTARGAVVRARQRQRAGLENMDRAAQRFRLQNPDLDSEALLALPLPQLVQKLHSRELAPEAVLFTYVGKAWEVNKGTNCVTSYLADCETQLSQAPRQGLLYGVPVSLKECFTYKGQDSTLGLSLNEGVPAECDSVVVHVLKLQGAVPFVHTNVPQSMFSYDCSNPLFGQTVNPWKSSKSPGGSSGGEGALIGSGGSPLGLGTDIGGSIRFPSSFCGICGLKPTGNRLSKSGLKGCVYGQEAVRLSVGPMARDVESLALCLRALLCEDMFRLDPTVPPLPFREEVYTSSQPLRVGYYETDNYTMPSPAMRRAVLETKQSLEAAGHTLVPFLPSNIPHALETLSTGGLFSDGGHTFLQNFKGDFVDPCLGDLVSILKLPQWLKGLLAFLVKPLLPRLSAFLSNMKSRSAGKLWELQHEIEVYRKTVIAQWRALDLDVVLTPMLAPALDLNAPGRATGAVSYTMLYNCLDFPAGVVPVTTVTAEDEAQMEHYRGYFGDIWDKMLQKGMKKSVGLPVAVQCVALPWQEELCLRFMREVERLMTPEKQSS
Assay: Human FAAH lysate assay (CHO cell lysate, AAMCA fluorescent substrate)
Type: biochemical
Conditions: FAAH inhibition, CHO cell lysate expressing human FAAH; read-out: Human Lysate
Excerpt: To assist in assay development stable cell lines for human, murine and rat full length FAAH were developed. Human FAAH cDNA (Accession No: NM-001441.1) was purchased from Origene (Rockville, Md.). The full length FAAH was subcloned into the mammalian expression vector, pcDEF.neo, using XbaI and EcoRI restriction sites and used for stable cell line generation. CHO cells expressing FAAH were used to prepare either crude cell lysate or microsome fractions. To harvest cells, tissue culture media was decanted, the monolayer washed three times with Ca^++Mg^++ free PBS and cells recovered after 15 min in enzyme free dissociation media (Millipore Corp, Billerica, Mass.). Cells were collected by centrifuging at 2000 rpm for 15 min. and the cell pellet re-suspended with 50 mM HEPES (pH 7.4) containing 1 mM EDTA and the protease inhibitors aprotinin (1 mg/ml) and leupeptin (100 μM). […] The pellet containing FAAH-enriched microsomes was re-suspend in 50 mM HEPES, (pH 7,4) 1 mM EDTA, and any remaining DNA sheared by passage of material through a 23 gauge needle and aliquots of enzyme were store at -80° C. prior to use. […] (American Radiolabeled Chemicals; 1 mCi/ml) with FAAH (Life Sciences (1995), 56, 1999-2005 and Journal of Pharmacology and Experimented Therapeutics (1997), 283, 729-734), Analytical. Biochemistry (2003), 318, 270-5. […] Analytical. Biochemistry (2005). 343, 143-51 […] Fluorescent release as a measure of FAAH activity was monitored by reading the plate in a CytoFluor Multiplate Reader ([…]). Whole cell assay is conducted with cells harvested after rinsing tissue culture flasks three times with Ca^++Mg^++ free PBS, incubating for 10 min in Enzyme free dissociation media and centrifuging for 5 minutes at 1,000 rpm in table top centrifuge. Cells are resuspended in assay buffer at desired cell number in (4×10^4 cells/assay in 96-well format; 1×10^4 cells/assay in 384-well format) and assayed as described. […] The reaction was terminated by addition of 2 volumes of chloroform:methanol (1:1) and mixed by vortexing. […] K., et al. A fluorescence-based assay for fatty acid amide hydrolase compatible with high-throughput screening. Anal. Biochem. 343:143-51 (2005) • Wilson S. J., et l. A high-throughput-compatible assay for determining the activity of fatty acid amide hydrolase. Anal Biochem. 318:270-5 (2003).

Work on `Cn1c(-c2ccccc2)nc(Sc2ccc(Cl)cc2)c1-c1ccc(C#N)cc1` [Ex 3, 4-{4-[(4-chlorophenyl)thio]-1-methyl-2-phenyl-1H-imidazol-5-yl}benzonitrile] yielded a pIC50 of 6.43.

Same assay, conditions: human FAAH lysate; read-out: Human FAAH lysate assay: IC50

`Cn1cc(-c2nc(-c3ccc(S(C)(=O)=O)cc3)c(Sc3ccc(Cl)cc3)n2C)cn1` [Example 134, 4-{5-[(4-chlorophenyl)sulfanyl]-1-methyl-4-[4-(methylsulfonyl)phenyl]-1H-imidazol-2-yl}-1-methyl-1H-pyrazole] and `Cn1c(I)nc(-c2ccc(S(C)(=O)=O)cc2)c1Sc1ccc(Cl)cc1` [Example 133, 5-[(4-chlorophenyl)thio]-2-iodo-1-methyl-4-[4-(methylsulfonyl)phenyl]-1H-imidazole] are within 0.2 log units of each other in pIC50: 7.86 for the first, 7.81 for the second.

`Cn1c(-c2ccccn2)nc(-c2ccc(-c3nccs3)cc2)c1Sc1ccc(Cl)cc1` [Example 119, 2-{5-[(4-chlorophenyl)thio]-1-methyl-4-[4-(1,3-thiazol-2-yl)phenyl]-1H-imidazol-2-yl}pyridine] and `Cn1c(-c2ccccn2)nc(-c2ccc(-c3ccco3)cc2)c1Sc1ccc(Cl)cc1` [Example 116, 5-[(4-chlorophenyl)thio]-4-[4-(2-furyl)phenyl]-1-methyl-2-pyridin-2-yl-1H-imidazol-3-ium trifluoroacetate] are within 0.2 log units of each other in pIC50: 7.84 for the first, 7.76 for the second.

`CC(C)n1ccc(-c2nc(-c3ccc(-c4ncon4)cc3)c(Sc3ccc(Cl)cc3)n2C)n1` [Example 142, 3-(4-{5-[(4-chlorophenyl)sulfanyl]-1-methyl-2-[1-(propan-2-yl)-1H-pyrazol-3-yl]-1H-imidazol-4-yl}phenyl)-1,2,4-oxadiazole] and `Cn1ccc(-c2nc(-c3ccc(-c4ncon4)cc3)c(Sc3ccc(Cl)cc3)n2C)n1` [Example 143, 3-(4-{5-[(4-chlorophenyl)sulfanyl]-1-methyl-2-(1-methyl-1H-pyrazol-3-yl)-1H-imidazol-4-yl}phenyl)-1,2,4-oxadiazole] are within 0.2 log units of each other in pIC50: 7.81 for the first, 7.93 for the second.

Compared with `Cn1c(C(C)(C)O)nc(-c2ccc(-c3ncon3)cc2)c1Sc1ccc(Cl)cc1` [Example 146, 2-{5-[(4-chlorophenyl)sulfanyl]-1-methyl-4-[4-(1,2,4-oxadiazol-3-yl)phenyl]-1H-imidazol-2-yl}propan-2-ol], `CCn1ccc(-c2nc(-c3ccc(-c4ncon4)cc3)c(Sc3ccc(Cl)cc3)n2C)n1` [Example 140, 3-4-({5-[(4-chlorophenyl)sulfanyl]-2-(1-ethyl-1H-pyrazol-3-yl)-1-methyl-1H-imidazol-4-yl)phenyl)-1,2,4-oxadiazole] is 0.86 log units higher in pIC50: 6.68 for the first, 7.54 for the second. The second is the more potent here.

First: Cn1cnc(-c2ccc(OC(C)(C)CO)cc2)c1Sc1ccc(Cl)cn1 [Example 125, 5-[(5-chloropyridin-2-yl)thio]-4-[4-(2-hydroxy-1,1-dimethylethoxy)phenyl]-1-methyl-1H-imidazol-3-ium trifluoroacetate]
Second: Cn1cnc(-c2ccc(OC(C)(C)C(N)=O)cc2)c1Sc1ccc(Cl)cn1 [Example 124, 2-(4-{5-[(5-chloropyridin-2-yl)thio]-1-methyl-1H-imidazol-4-yl}phenoxy)-2-methylpropanamide]
The pIC50 of the first is 0.74 log units lower: 6.70 for the first, 7.44 for the second. The second is the more potent here.

`Cn1c(-c2ccccn2)nc(-c2ccc(S(C)(=O)=O)nc2)c1Sc1ccc(Cl)cn1` [Example 100, 5-Chloro-2-({1-methyl-4-[6-(methylsulfonyl)pyridin-3-yl]-2-pyridin-2-yl-1H-imidazol-5-yl}thio)pyridine] and `Cn1c(-c2ccccn2)nc(-c2ccc(C(C)(C)O)nc2)c1Sc1ccc(Cl)cc1` [Example 105, 2-(5-{5-[(4-Chlorophenyl)thio]-1-methyl-2-pyridin-2-yl-1H-imidazol-4-yl}pyridin-2-yl)propan-2-ol] are within 0.2 log units of each other in pIC50: 7.32 for the first, 7.42 for the second.

Compared with `Cn1c(-c2ccn(C3CC3)n2)nc(-c2ccc(-c3ncon3)cc2)c1Sc1ccc(Cl)cc1` [Example 144, 3-(4-{5-[(4-chlorophenyl)sulfanyl]-2-(1-cyclopropyl-1H-pyrazol-3-yl)-1-methyl-1H-imidazol-4-yl}phenyl)-1,2,4-oxadiazole], `CC(CO)NC(=O)c1ccc(-c2nc(-c3ccccn3)n(C)c2Sc2ccc(Cl)cc2)cc1` (stereo not shown) [Example 127, 4-{5-[(4-chlorophenyl)thio]-1-methyl-2-pyridin-2-yl-1H-imidazol-4-yl}-N-(2-hydroxy-1-methylethyl)benzamide] is 1.02 log units lower in pIC50: 8.13 for the first, 7.11 for the second.

Compared with `CS(=O)(=O)c1ccc(-c2nc3n(c2Sc2ccc(Cl)cc2)CCC2CCCNC32)cc1` (stereo not shown) [Example 128, 3-[(4-chlorophenyl)thio]-2-[4-(methylsulfonyl)phenyl]-5,6,6a,7,8,9,10,10a-octahydroimidazo[1,2-h]-1,7-naphthyridine], `Cn1c(C2CC2)nc(-c2ccc3nc(C(F)F)ccc3c2)c1Sc1ccc(Cl)cn1` [Example 131, 6-{5-[(5-chloropyridin-2-sulfanyl]-2-cyclopropyl-1-methyl-1H-imidazol-4-yl}-2-difluoromethyl)quinoline] is 0.74 log units higher in pIC50: 7.01 for the first, 7.75 for the second. The second is the more potent here.

`Cn1cnc(-c2ccc(OC(C)(C)C(O)C(F)(F)F)cc2)c1Sc1ccc(Cl)cn1` (stereo not shown) [Example 126, 3-(4-{5-[(5-chloropyridin-2-yl)thio]-1-methyl-1H-imidazol-4-yl}phenoxy)-1,1,1-trifluoro-3-methylbutan-2-ol] gave a pIC50 of 6.73.

Same assay, conditions: human FAAH lysate; read-out: hFAAH lysate IC50

First: COc1ccc(-c2nc(-c3ccc(S(C)(=O)=O)cc3)c(Sc3ccc(Cl)cc3)n2C)cn1 [Example 136]
Second: Cn1c(-c2ncco2)nc(-c2ccc(S(C)(=O)=O)cc2)c1Sc1ccc(Cl)cc1 [Example 139]
The pIC50 of the first is 0.76 log units lower: 6.91 for the first, 7.67 for the second.

First: Cn1c(-c2ccccn2)nc(-c2ccc(S(C)(=O)=O)nc2)c1Sc1ccc(Cl)cc1 [Example 101]
Second: Cn1c(-c2ccccn2)nc(-c2ccc(S(C)(=O)=O)nc2)c1Sc1ccc(F)c(F)c1 [Example 103]
The pIC50 of the first is 0.78 log units higher: 8.20 for the first, 7.42 for the second.

`Cn1c(-c2ccccn2)nc(-c2ccc(-c3ccncc3)cc2)c1Sc1ccc(Cl)cn1` [Example 118] and `Cn1c(-c2ccccn2)nc(-c2ccc(-c3ccsc3)cc2)c1Sc1ccc(Cl)cc1` [Example 117] are within 0.2 log units of each other in pIC50: 8.11 for the first, 8.06 for the second.

Going from `Cn1c(-c2ccccn2)nc(-c2ccc(C(C)(C)O)nc2)c1Sc1ccc(F)cn1` [Example 109] to `Cn1c(-c2ccccn2)nc(-c2ccc(C(C)(C)O)nc2)c1Sc1ccc(F)cc1F` [Example 108], the pIC50 rises from 6.87 to 7.48 (0.61 log units). The second is the more potent here.

First: CN(C)C(=O)c1ccc2cc(-c3nc(C4CC4)n(C)c3Sc3ccc(Cl)cn3)ccc2n1 [Example 132, 6-{5-[(5-chloropyridin-2-yl)thio]-2-cyclopropyl-1-methyl-1H-imidazol-4-yl}-N,N-dimethylquinoline-2-carboxamide]
Second: Cn1c(-c2ccc(F)cc2)nc(-c2ccc(C(C)(C)O)nc2)c1Sc1ccc(Cl)cc1 [Example 115]
The pIC50 of the first is 0.33 log units lower: 6.84 for the first, 7.17 for the second. The second is the more potent here.

Compared with `COc1cnc(Sc2c(-c3ccc(S(C)(=O)=O)nc3)nc(-c3ccccn3)n2C)nc1` [Example 104], `Cn1c(-c2ccccn2)nc(-c2ccc(S(C)(=O)=O)nc2)c1Sc1ccc(F)cc1F` [Example 102] is 1.12 log units higher in pIC50: 6.69 for the first, 7.81 for the second. The second is the more potent here.

First: COC(=O)c1ccc(-c2nc3c4ncccc4ccn3c2Sc2ccc(Cl)cc2)cc1 [Example 129]
Second: Cn1c(-c2nccs2)nc(-c2ccc(S(C)(=O)=O)cc2)c1Sc1ccc(Cl)cc1 [Example 138]
The pIC50 of the first is 0.31 log units higher: 7.92 for the first, 7.61 for the second. The first is the more potent here.

`Cn1c(-c2ccc(F)c(F)c2)nc(-c2ccc(C(C)(C)O)nc2)c1Sc1ccc(Cl)cc1F` [Example 112] and `Cn1c(-c2ccc(F)c(F)c2)nc(-c2ccc(C(C)(C)O)nc2)c1Sc1ccc(Cl)cc1` [Example 114] are within 0.2 log units of each other in pIC50: 6.94 for the first, 7.06 for the second.
